From patent US20250388589A1, “TRICYCLIC HETEROCYCLIC DERIVATIVES, COMPOSITIONS AND USES THEREOF” (Danatlas Pharmaceuticals Co., Ltd., priority 2022, published 2025)

Tests used:
[1] = target: hPARG (C-terminal His6-tag) (Homo sapiens (Human), UniProt Q86W56); assay: PARG Enzymatic Activity Assay (HTRF); type: biochemical; settings: hPARG 65 pM final, biotinylated-NAD ribosylated PARP1 8 nM final
Protocol: PARG Enzymatic Activity Assay HTRF assay was used to measure the ability of compounds to inhibit the activity of PARG in vitro. C-terminal His6-tag PARG expressed in E. coli was purified and stored at −80° C. in aliquots. Assay measurements were performed with 1×buffer comprising 50 mM Tris pH 7.4, 0.1 mg/mL BSA, 3 mM EDTA, 0.4 mM EGTA, 1 mM DTT, 50 mM KCl and 0.01% Tween 20.
Compounds dissolved in DMSO were plated into a 384-well assay plate (PerkinElmer, Catalog #: 6008280) in duplicate using a dispenser (Labcyte, Echo 665), and tested on a 10-point 4-fold serial dilution. Add 5 L Enzyme mix [hPARG (C-terminal His6-tag, 4.2 μM), 65 pM final] to the test wells. The plates were covered and left to incubate for 60 minutes at RT before the addition of 5 L substrate mix [biotinylated-NAD ribosylated PARP1 (6.1 μM), 8 nM final] to initiate reaction. After incubating 10 minutes at RT, add 2.5 L Streptavidin-Eu cryptate (Cisbio, Catalog #: 610SAKLA) and 2.5 L Mab anti 6HIS-XL665 (Cisbio, Catalog #: 61HISXLA) to the plate, and incubate for 60 minutes at RT. Read on a multimode plate reader (PerkinElmer, Envision 2015) in time-resolved fluorescence (TRF) mode, with excitation at 337 nm and emission at both 620 nm and 665 nm. Average HTRF signal of high control (Wells with 1% DMSO) was calculated and as Vehicle Control (VC). Average HTRF signal of low control (no Enzyme) was calculated and as Positive control (PC).
(§1) IC50 values were determined by fitting the data to the standard 4 parameters with Hill Slope using GraphPad Prism software.

Kuramochi cell line = assay: Cell Viability Assay (Cell Titer-Glo, 7 days); type: cell-based; settings: 168 h, Kuramochi cells, 7 days incubation, read-out: PARG Cell viability (IC50)
Protocol: Cell viability studies were conducted in Kuramochi cell line. Cells were maintained in RPMI (Hyclone, Catalog #: SH3080901B) supplemented with 10% v/v FBS (AusGeneX, Catalog #: FBS500-S), 1% v/v Penicillin Streptomycin (Gibco, Catalog #: 15140122). Cells were seeded in 96-well plates (PerkinElmer, Catalog #: 6005680) at a density of 400 cells/well. Compounds dissolved in DMSO were plated in duplicate using a multichannel pipette, and tested on a 9-point 3-fold serial dilution. Cells were incubated for 7 days in a 37° C. active humidified incubator at 5% CO2. Cell viability was measured using the Cell Titer-Glo reagent (Promega, Catalog #: G7573) as manufacturer's instructions. Luminescence signal was measured with a multimode plate reader (Perkin Elmer, Envision 2105 or BMG, ClarioStar Plus). Average values of DMSO treated wells in a plate was calculated and as high control (HC). Average values of only medium in a plate was calculated and as low control (LC)
as §1

hPARG (C-terminal His6-tag), sequence (Q86W56 whole entry): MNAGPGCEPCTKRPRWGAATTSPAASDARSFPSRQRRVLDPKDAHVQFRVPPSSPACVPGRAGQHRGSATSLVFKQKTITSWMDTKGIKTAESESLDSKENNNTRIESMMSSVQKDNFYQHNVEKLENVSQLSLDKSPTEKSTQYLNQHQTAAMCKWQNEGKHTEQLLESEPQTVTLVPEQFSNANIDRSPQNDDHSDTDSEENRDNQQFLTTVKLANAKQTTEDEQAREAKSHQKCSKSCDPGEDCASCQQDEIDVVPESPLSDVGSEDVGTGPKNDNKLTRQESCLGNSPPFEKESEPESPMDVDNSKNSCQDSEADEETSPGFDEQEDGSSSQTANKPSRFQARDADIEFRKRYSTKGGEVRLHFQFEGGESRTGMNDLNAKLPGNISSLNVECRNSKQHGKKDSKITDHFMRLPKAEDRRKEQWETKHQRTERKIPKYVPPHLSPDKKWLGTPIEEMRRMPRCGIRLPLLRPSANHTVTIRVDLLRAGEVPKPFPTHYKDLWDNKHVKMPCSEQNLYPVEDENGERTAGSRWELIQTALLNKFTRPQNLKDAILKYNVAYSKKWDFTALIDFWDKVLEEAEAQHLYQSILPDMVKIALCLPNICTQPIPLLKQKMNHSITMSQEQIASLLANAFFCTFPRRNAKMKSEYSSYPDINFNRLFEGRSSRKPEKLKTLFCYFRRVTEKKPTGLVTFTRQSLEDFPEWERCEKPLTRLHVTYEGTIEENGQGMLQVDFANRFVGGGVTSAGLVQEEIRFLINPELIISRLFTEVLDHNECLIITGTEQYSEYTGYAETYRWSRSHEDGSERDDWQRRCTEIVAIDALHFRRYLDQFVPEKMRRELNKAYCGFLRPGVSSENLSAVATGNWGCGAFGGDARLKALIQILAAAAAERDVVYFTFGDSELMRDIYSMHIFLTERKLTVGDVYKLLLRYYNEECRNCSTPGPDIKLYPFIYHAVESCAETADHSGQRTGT

N#CC1(NS(=O)(=O)c2ccc3c4c(N5CCC6(CC5)COC6)ncnc4n(-c4nnc(C(F)F)s4)c3c2)CC1 [Example 20, N-(1-Cyanocyclopropyl)-9-(5-(difluoromethyl)-1,3,4-thiadiazol-2-yl)-4-(2-oxa-7-azaspiro[3.5]nonan-7-yl)-9H-pyrimido[4,5-b]indole-7-sulfonamide]
IC50 [1]: < 100 nM
IC50 (Kuramochi cell line): < 100 nM

C[C@@H]1CN(c2ncnc3c2c2ccc(S(=O)(=O)NC4(C#N)CC4)cc2n3-c2nnc(C(F)F)s2)CCO1 [Example 21, (R)-N-(1-cyanocyclopropyl)-9-(5-(difluoromethyl)-1,3,4-thiadiazol-2-yl)-4-(2-methylmorpholino)-9H-pyrimido[4,5-b]indole-7-sulfonamide]
IC50 [1]: < 100 nM
IC50 (Kuramochi cell line): 100 to 1000 nM

Cn1ccnc1N1CCN(c2ncnc3c2c2ccc(S(=O)(=O)NC4(C#N)CC4)cc2n3-c2nnc(C(F)F)s2)CC1 [Example 22, N-(1-Cyanocyclopropyl)-9-(5-(difluoromethyl)-1,3,4-thiadiazol-2-yl)-4-(4-(1-methyl-JH-imidazol-2-yl)piperazin-1-yl)-9H-pyrimido[4,5-b]indole-7-sulfonamide]
IC50 [1]: < 100 nM
IC50 (Kuramochi cell line): 100 to 1000 nM

CC(C)C(=O)N1CC2(C1)CN(c1ncnc3c1c1ccc(S(=O)(=O)NC4(C#N)CC4)cc1n3-c1nnc(C(F)F)s1)C2 [Example 23, N-(1-Cyanocyclopropyl)-9-[5-(difluoromethyl)-1,3,4-thiadiazol-2-yl]-4-[2-(2-methylpropanoyl)-2,6-diazaspiro[3.3]heptan-6-yl]pyrimido[4,5-b]indole-7-sulfonamide]
IC50 [1]: < 100 nM
IC50 (Kuramochi cell line): 100 to 1000 nM

CC(C)C(=O)N1C2CCC1CN(c1ncnc3c1c1ccc(S(=O)(=O)NC4(C#N)CC4)cc1n3-c1nnc(C(F)F)s1)C2 [Example 24, N-(1-Cyanocyclopropyl)-9-[5-(difluoromethyl)-1,3,4-thiadiazol-2-yl]-4-[8-(2-methylpropanoyl)-3,8-diazabicyclo[3.2.1]octan-3-yl]pyrimido[4,5-b]indole-7-sulfonamide]
IC50 [1]: < 100 nM
IC50 (Kuramochi cell line): 100 to 1000 nM

CC(C)C(=O)N1CCCN(c2ncnc3c2c2ccc(S(=O)(=O)NC4(C#N)CC4)cc2n3-c2nnc(C(F)F)s2)CC1 [Example 25, N-(1-Cyanocyclopropyl)-9-(5-(difluoromethyl)-1,3,4-thiadiazol-2-yl)-4-(4-isobutyryl-1,4-diazepan-1-yl)-9H-pyrimido[4,5-b]indole-7-sulfonamide]
IC50 [1]: < 100 nM
IC50 (Kuramochi cell line): 100 to 1000 nM

N#CC1(NS(=O)(=O)c2ccc3c4c(N5CCN(C(=O)C6CC6(F)F)CC5)ncnc4n(-c4nnc(C(F)F)s4)c3c2)CC1 (stereo not drawn) [Example 26, N-(1-Cyanocyclopropyl)-4-(4-(2,2-difluorocyclopropane-1-carbonyl)piperazin-1-yl)-9-(5-(difluoromethyl)-1,3,4-thiadiazol-2-yl)-9H-pyrimido[4,5-b]indole-7-sulfonamide]
IC50 [1]: < 100 nM
IC50 (Kuramochi cell line): < 100 nM

Cc1ccc(C(=O)N2CCN(c3ncnc4c3c3ccc(S(=O)(=O)NC5(C#N)CC5)cc3n4-c3nnc(C(F)F)s3)CC2)cn1 [Example 27, N-(1-Cyanocyclopropyl)-9-(5-(difluoromethyl)-1,3,4-thiadiazol-2-yl)-4-(4-(6-methylnicotinoyl)piperazin-1-yl)-9H-pyrimido[4,5-b]indole-7-sulfonamide]
IC50 [1]: < 100 nM
IC50 (Kuramochi cell line): 100 to 1000 nM

CN(C)C(=O)N1CC2CN(c3ncnc4c3c3ccc(S(=O)(=O)NC5(C#N)CC5)cc3n4-c3nnc(C(F)F)s3)CC2C1 (stereo not drawn) [Example 28, 5-(7-(N-(1-Cyanocyclopropyl)sulfamoyl)-9-(5-(difluoromethyl)-1,3,4-thiadiazol-2-yl)-9H-pyrimido[4,5-b]indol-4-yl)-N,N-dimethylhexahydropyrrolo[3,4-c]pyrrole-2(1H)-carboxamide]
IC50 [1]: < 100 nM
IC50 (Kuramochi cell line): 100 to 1000 nM
